Inconclusive results are not listed. Activity calls are given as the source filed them. No rule for the calls is given here. A value given as a limit tells only on which side of the number the result lay.

These results are taken from PubChem BioAssay AID488788 (Broad Institute, 2010).

Sequence of CAAX prenyl protease 2 (Saccharomyces cerevisiae (strain ATCC 204508 / S288c)) (Q03530 whole entry, looked up): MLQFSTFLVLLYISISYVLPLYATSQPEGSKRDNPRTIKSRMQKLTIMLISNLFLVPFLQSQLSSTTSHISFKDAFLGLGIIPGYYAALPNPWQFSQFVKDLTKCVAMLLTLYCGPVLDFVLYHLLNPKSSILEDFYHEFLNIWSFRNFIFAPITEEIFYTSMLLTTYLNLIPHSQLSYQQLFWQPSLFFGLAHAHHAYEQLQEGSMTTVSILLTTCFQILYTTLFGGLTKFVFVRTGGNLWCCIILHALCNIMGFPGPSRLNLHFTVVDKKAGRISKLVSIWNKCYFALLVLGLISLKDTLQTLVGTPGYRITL

The first assay has as its target CAAX prenyl protease 2 (Saccharomyces cerevisiae (strain ATCC 204508 / S288c)) (UniProt Q03530). The assay is described as follows: yeast Rce1 CAAX endoprotease inhibition – biochemical, plate reader, cherry-pick, dose response (AID 488788). The settings on record: Rce1p enzyme activity.
What is called AC50 is the concentration at which the activity in the assay is half-maximal. Regarding `CC1COc2c(N3CCN(C)CC3)c(F)cc3c(=O)c(C(=O)O)cn1c23` (centres undefined), the AC50 is > 10 µM (inactive).

Staying with this assay, now noted: Rce1p enzyme activity, at 10 µM (top of the series).
For the compound `O=S(=O)(c1ccccc1)c1cnn2c(C(F)(F)F)cc(-c3ccc(F)cc3)nc12`, the “activity change, negative = inhibition” value is “inactive”.
With `Cc1ccc(-c2cc3cccc[n+]3cc2-c2ccc(C)cc2)cc1`, the “activity change, negative = inhibition” value was “inactive”.
On to `CC(C)CNC(=O)Nc1ccc(F)c(Cl)c1`, for which the “activity change, negative = inhibition” value is “inactive”.
On the same count and under the same terms, for `CCOC(=O)c1ccc(NC(=O)N2CCN(Cc3ccccc3)CC2)cc1` the value was “inactive”; for `CCOc1ccc(-n2ccnc(SCC(=O)NC3CCCC3)c2=O)cc1`, “inactive”; for `CCOc1ccccc1CNC(=O)c1cc2occc2n1C`, “inactive”.
On the same count and under the same terms, for `CSc1ccc(C(=O)C2CCCN(C(=O)c3cccnc3SC)C2)cc1` (centres undefined) the value was “inactive”; for `CCN(CC)c1ccc(C(=O)c2ccccc2C(=O)O)c(O)c1`, “inactive”.
For `COc1ccc2[nH]c(C(=O)NCCCn3ccnc3)cc2c1`, the “activity change, negative = inhibition” value is “inactive”.
For the compound `CCc1nc(Nc2ccncc2)c2oc3ccccc3c2n1`, the “activity change, negative = inhibition” value was “inactive”.
Consider `CCOC(=O)c1cc(C)[nH]c(=O)c1C#N`, for which the “activity change, negative = inhibition” value was “inactive”.
The same measure, in the same setting: the value for `COC(=O)c1sccc1NC(=O)CSc1nnnn1-c1ccccc1C` was “inactive”; that for `CCOc1c2ccc(C(=O)NCc3ccco3)cc2nn1CCOC` was “inactive”; that for `O=C1OCCN1C(=O)[C@H]1[C@H](c2ccc(F)cc2)C(c2ccc(F)cc2)=NN1c1ccc(Br)cc1` was “inactive”.
Still for that read-out and setting: the value for `COc1ccc(OCC(=O)NS(=O)(=O)c2ccc(Cl)cc2)cc1` was “inactive”.
On the same count and under the same terms, the value for `CN1CCN(c2ccc([N+](=O)[O-])c(Sc3nncn3C)c2)CC1` was “inactive”; that for `COc1cc(-c2nc3ccccn3c2/N=C/c2ccccc2)ccc1O` was “inactive”; that for `CC(=O)N1c2ccc([N+](=O)[O-])cc2NC(=O)CC1C` (centres undefined) was “inactive”.
As for `Cc1nn(-c2ccccc2)c2nc(N)c(C(N)=O)cc12`, the “activity change, negative = inhibition” value is “inactive”.
In the case of `COc1ccc(/C=C/c2nc3ccccc3n2C)cc1`, the “activity change, negative = inhibition” value is “inactive”.
For the compound `CCCCCCCCNC(C)C(O)c1ccc(SC(C)C)cc1` (centres undefined), the “activity change, negative = inhibition” value was “inactive”.
Still for that read-out and setting: the value for `CC1CCC/C(=C\Nc2ccccc2C(=O)O)C1=O` (centres undefined) was “inactive”.
In the case of `Cc1ccccc1OC(C)C(=O)N1CCC(Cc2ccccc2)CC1` (centres undefined), the “activity change, negative = inhibition” value was “inactive”.
Same read-out and setting: the value for `CCCCNC(=S)NNC(=O)CCn1cc(C)cn1` was “inactive”; that for `CN1C(=O)c2ccccc2N(C)C1c1ccccc1Cl` (centres undefined) was “inactive”; that for `O=C1CN(C(=O)NCC(=O)N2CCCC2)c2ccccc2N1` was “inactive”.
Same read-out and setting: the value for `CCOC(=O)c1c(-c2ccc(OC)cc2)oc2ccc(OC(=O)N(C)C)cc12` was “inactive”; that for `CCOCc1cc(C)[nH]c(=O)c1C#N` was “inactive”; that for `O=C(NCCc1c[nH]c2ccccc12)OCCSS(=O)(=O)O` was “inactive”.
`Cc1ccnc(-n2c(-c3ccco3)nc3ccccc3c2=O)c1`: the “activity change, negative = inhibition” value is “inactive”.
The same measure, in the same setting: the value for `CCCCn1c(=O)[nH]c(=O)c2c1nc(-c1ccc(OC)c(Br)c1)n2CC(C)C` was “inactive”; that for `Cc1ccc(C(=O)c2c3ccc(C(F)(F)F)cc3[n+]([O-])n2CCCC(N)=O)cc1` was “inactive”.
As to `COC(=O)c1ccc(-c2ccc(CNCC(O)c3ccccc3)o2)cc1` (centres undefined), the “activity change, negative = inhibition” value was “inactive”.
The same measure, in the same setting: for `CCOc1ccc(NC(=O)CCSc2ccc(C)cc2)cc1` the value was “inactive”; for `CCN1CCN(c2ccc(NC(=O)c3cccc(OCc4ccccc4)c3)cc2)CC1`, “inactive”; for `CCNC(=S)NNC(=O)CCn1cc(C)cn1`, “inactive”.
The same measure, in the same setting: the value for `O=C1C(Cc2c[nH]c3ccccc23)NC(=S)N1Cc1ccccc1` (centres undefined) was “inactive”; that for `CCCCNC(=O)C(CC)Sc1nc2sc(C(=O)OC)c(C)c2c(=O)n1N` (centres undefined) was “inactive”; that for `CC(=O)N[C@@H](C)c1nc2ccccc2n1CCCN1CCN(c2nc(-c3ccc(C)cc3)cs2)CC1` was “inactive”.
On the same count and under the same terms, for `CN1CCN(C(=S)NC(=O)c2ccccc2Cl)CC1` the value was “inactive”; for `CCOC(=O)c1c(C2COc3ccccc3O2)csc1NC(=O)c1ccccc1` (centres undefined), “inactive”; for `CCCCOc1ccc(Cc2c(COCC)[nH]c(=S)[nH]c2=O)cc1`, “inactive”.
On to `COCCn1cc(C(=O)NCCN(C)C)c2c3ccccc3n(C)c2c1=O`, for which the “activity change, negative = inhibition” value was “inactive”.
Still for that read-out and setting: for `COc1ccccc1-n1c(-c2ccccc2)c[nH]c1=S` the value was “inactive”; for `CC(Oc1ccc2c3c(c(=O)oc2c1)CCCC3)C(=O)NC1CC(C)(C)NC(C)(C)C1` (centres undefined), “inactive”.
`COc1cc2c(cc1OC)C(C)N(C(=O)c1cc3c(=O)oc4ccc(C)cc4c3s1)CC2` (centres undefined): the “activity change, negative = inhibition” value is “inactive”.
Same read-out and setting: the value for `COCCNc1nc(N)c([N+](=O)[O-])c(N2CCCCCC2)n1` was “inactive”; that for `CCCCn1c(-c2sccc2C)n[nH]c1=S` was “inactive”; that for `CCOc1cc(-c2nc3c(C)cccn3c2NCC2CCCO2)ccc1O` (centres undefined) was “inactive”.
For the compound `O=C1NC2(C=Cc3c(ccc4ccccc34)O2)Oc2ccccc21` (centres undefined), the “activity change, negative = inhibition” value was “inactive”.
Still for that read-out and setting: for `O=C(Nc1ccc(F)cc1)Oc1ccccc1N1CCOCC1` the value was “inactive”.
For the compound `COc1ccc(/C=N/NC(=O)c2ccc(Cl)cc2)cc1COC(C)=O`, the “activity change, negative = inhibition” value was “inactive”.
Take `C=CC[N+]1(C)CC[C@]23c4c5ccc(O)c4O[C@H]2C(=O)CC[C@@]3(O)[C@H]1C5` (some centres undefined): the “activity change, negative = inhibition” value is “inactive”.
Still for that read-out and setting: for `CC1CCc2c(sc(NC(=O)COC(=O)c3ccccc3NCc3ccco3)c2C#N)C1` (centres undefined) the value was “inactive”; for `COCCCNC(=O)c1cc2cc3cc(OC)ccc3nc2o1`, “inactive”; for `O=C(Nc1cc(S(=O)(=O)N2CCCCC2)ccc1Cl)c1ccccc1NS(=O)(=O)c1ccc(F)cc1`, “inactive”.
For the compound `CCOc1ccc(N(CC(=O)NC2CC3CCC2C3)S(=O)(=O)c2ccccc2)cc1` (centres undefined), the “activity change, negative = inhibition” value is “inactive”.
Take `CC(C)N1CCN(S(=O)(=O)c2ccc3ccccc3c2)CC1`: the “activity change, negative = inhibition” value is “inactive”.
Still for that read-out and setting: the value for `Cc1ccc(C(=O)N/C(=C/c2ccco2)C(=O)Nc2cccc(C(=O)O)c2)cc1` was “inactive”; that for `Cn1c(CN2CCOCC2)c(C#N)c2ccccc21` was “inactive”.
Consider `Cc1ccc(S(=O)(=O)CC(=O)N2CCN(c3ccccc3F)CC2)cc1`, for which the “activity change, negative = inhibition” value is “inactive”.
In the case of `CC(=O)OCC(=O)[C@@]12OC3(CCCC3)O[C@@H]1C[C@H]1[C@@H]3CCC4=CC(=O)C=C[C@]4(C)[C@@]3(F)[C@@H](O)C[C@@]12C`, the “activity change, negative = inhibition” value was “inactive”.
On to `COC(C[C@@H]1O[C@@H]1C(=O)[C@@H](C)OCc1ccccc1)OC`, for which the “activity change, negative = inhibition” value was “inactive”.
For the compound `CCc1nnc(NC(=O)c2ccc(NS(=O)(=O)c3ccccc3)cc2)s1`, the “activity change, negative = inhibition” value is “inactive”.
Take `CC1=C(C(=O)N2CCOCC2)C(c2ccccc2F)C2=C(CC(C)(C)CC2=O)N1` (centres undefined): the “activity change, negative = inhibition” value was “inactive”.
Same read-out and setting: the value for `Nc1nc2c(ncn2COC(CO)CO)c(=O)[nH]1` was “inactive”.
Still for that read-out and setting: the value for `C/C(CC1(O)C(=O)Nc2ccccc21)=N\O` (centres undefined) was “inactive”; that for `COc1ccc2c(c1)cc(C(=O)N[C@@H](CCSC)C(=O)N1CCC(C(=O)O)CC1)n2C` was “inactive”.
The same measure, in the same setting: the value for `COC(C/C=C/[C@H](O)[C@H](C)OCc1ccccc1)OC` was “inactive”; that for `COc1ccc(-c2nc3ncccc3o2)cc1NC(=O)c1ccco1` was “inactive”.
For `O=[N+]([O-])c1cc(S(=O)(=O)N2CCCC2)ccc1NN=C1CCCCC1`, the “activity change, negative = inhibition” value was “inactive”.
On the same count and under the same terms, for `c1cnn(Cc2cnc(N3CCOCC3)s2)c1` the value was “inactive”.
Same read-out and setting: for `CC1=CC2=NC(=O)CC(C)(C(=O)N(CC(=O)NC3CCCC3)Cc3ccccc3)N2C=C1` (centres undefined) the value was “inactive”.
On the same count and under the same terms, for `O=C1CCCN1CC(O)CS(=O)(=O)c1ccccc1` (centres undefined) the value was “inactive”; for `O=C1CN(S(=O)(=O)c2ccc([N+](=O)[O-])cc2)CC(=O)N1`, “inactive”; for `CCN1CCN(Cc2c(O)ccc3c(=O)c(-c4ccccc4OC)coc23)CC1`, “inactive”.
Take `CC(C)CC(=O)NC(=S)Nc1ccc(S(=O)(=O)Nc2nccs2)cc1`: the “activity change, negative = inhibition” value was “inactive”.
With `COc1ccc(-c2cc3ccccc3n2CC(O)CNCCO)cc1` (centres undefined), the “activity change, negative = inhibition” value is “inactive”.
In the case of `O=C(COc1ncnc2cc([N+](=O)[O-])ccc12)NC(=O)NC1CCCCC1`, the “activity change, negative = inhibition” value is “inactive”.
On the same count and under the same terms, for `COc1cccc(NC(=O)Nc2cccn(Cc3ccc(C)cc3)c2=O)c1` the value was “inactive”; for `Cc1nc(N2CCOCC2)c2cc(-c3ccccc3)sc2n1`, “inactive”.
On to `O=C(O)CCC(=O)c1ccc(-c2ccccc2)cc1`, for which the “activity change, negative = inhibition” value was “inactive”.
Same read-out and setting: the value for `CC(=O)NC(Cc1c[nH]c2ccccc12)C(=O)O` (centres undefined) was “inactive”.
